Laboratory results taken from patent US20230151034A1 (COCRYSTAL PHARMA, INC., priority 2020, published 2023).
Like-named read-outs stand apart in the source and are kept apart here.

What was measured:
[1] = biological target: HuNV GGII.4 Norovirus protease (Norovirus GII.4 (human norovirus genogroup II genotype 4), UniProt P54634); test: Norovirus protease FRET assay (HuNV GGII.4); assay type: biochemical
[2] = biological target: Norwalk GGI.1 Norovirus protease (Norovirus, UniProt Q83883); test: Noro-Norwalk FRET protease assay (Norwalk GGI.1); assay type: biochemical, Norwalk virus
Method: Viral protease assays: The antiviral activities of inhibitors were determined by FRET (Fluorescence Resonance Energy Transfer) assay. Purified viral protease was incubated with the protease substrate peptide (Edans-DFHLQ/GP-Dabcyl) and inhibitor, and IC50 values were subsequently determined by the fluorescence signals.
The Noro-Norwalk FRET protease assay was performed in 50 mM HEPES-Na pH 8, 50 mM NaCl, 0.4 mM EDTA, 4% glycerol, and 6 mM DTT. A self-quenching peptide substrate [5-FAM]-[…]-[TAMRA] was custom synthesized by Anaspec. Compounds were diluted in 3-fold serial dilutions to final concentrations of 200 μM to 10.2 nM. Noro protease was added to a final concentration of 1-7 μM, depending on the enzyme activity level, and the peptide substrate was added to a final concentration of 10 μM. The assay was incubated 90 minutes at 37° C. and read in a Perkin Elmer Envision with excitation at 473 nm and emission measurement at 519 nm.

SARS2 protease = SARS2 protease (Severe acute respiratory syndrome coronavirus 2, UniProt P0DTD1); test: SARS-CoV-2 protease inhibition assay (SARS2 FRET protease assay); assay type: biochemical
Procedure, shortened: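 SARS-CoV-2 protease (25 nM) was incubated for 30 min at 30 °C with 1.3 μM quenched 5-FAM/TAMRA peptide substrate and compound (3-fold dilutions, 20 μM–1.0 nM). The buffer was 20 mM HEPES-Na pH 7, 120 mM NaCl, 0.4 mM EDTA, 0.01% Triton, 5% glycerol and 4 mM DTT. Fluorescence was read at ex 473 and em 519 nm, and IC50 was derived.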

[3] = Table C, FRET protease assay, read-out: HuNV GGII.4 IC50
[4] = Table C, FRET protease assay, read-out: Norwalk GGI.1 IC50
[5] = Table E, SARS-CoV-2 protease inhibition, read-out: IC50
[6] = Table D, FRET protease assay, read-out: HuNV GGII.4 IC50
[7] = Table D, FRET protease assay, read-out: Norwalk GGI.1 IC50

Sequence of HuNV GGII.4 Norovirus protease (P54634 1009-1189): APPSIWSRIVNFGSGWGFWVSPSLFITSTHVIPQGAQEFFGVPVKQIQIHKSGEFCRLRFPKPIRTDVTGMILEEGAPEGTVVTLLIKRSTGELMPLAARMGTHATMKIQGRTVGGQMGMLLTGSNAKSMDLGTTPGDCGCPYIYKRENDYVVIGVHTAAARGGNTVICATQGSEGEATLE
Sequence of Norwalk GGI.1 Norovirus protease (Q83883 1101-1281): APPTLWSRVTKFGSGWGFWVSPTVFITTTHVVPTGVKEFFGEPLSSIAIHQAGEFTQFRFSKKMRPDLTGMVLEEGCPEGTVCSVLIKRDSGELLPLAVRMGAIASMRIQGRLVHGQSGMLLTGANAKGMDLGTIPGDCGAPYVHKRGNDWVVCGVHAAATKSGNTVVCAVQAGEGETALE

## CCCCCN(C)C(=O)CC[C@H](NC(=O)[C@H](CC1CCCCC1)NC(=O)OCc1cccc(Cl)c1)C(O)P(=O)(OCC)OCC (stereo partly drawn) [Compound A9, 3-chlorobenzyl ((2S)-3-cyclohexyl-1-(((2S)-1-(diethoxyphosphoryl)-1-hydroxy-5-(methyl(pentyl)amino)-5-oxopentan-2-yl)amino)-1-oxopropan-2-yl)carbamate]
[1]; [3]
  IC50: 154 µM
[2]; [4]
  IC50: 14 µM
SARS2 protease; [5]
  IC50: > 200 µM

## CCOCCN(C)C(=O)CC[C@@H](C=O)NC(=O)[C@H](CC1CCCCC1)NC(=O)OCc1cccc(Cl)c1 [Compound A10, 3-chlorobenzyl ((S)-3-cyclohexyl-1-(((S)-5-((2-ethoxyethyl)(methyl)amino)-1,5-dioxopentan-2-yl)amino)-1-oxopropan-2-yl)carbamate]
[1]; [3]
  IC50: 16.9 µM
[2]; [4]
  IC50: 3.6 µM
SARS2 protease; [5]
  IC50: 0.98 µM

## CCOP(=O)(OCC)C(O)[C@H](CCC(=O)N(C)Cc1ccccc1)NC(=O)[C@H](CC1CCCCC1)NC(=O)OCc1cccc(Cl)c1 (stereo partly drawn) [Compound A13, 3-Chlorobenzyl ((2S)-1-(((2S)-5-(benzyl (methyl)amino)-1-(diethoxyphosphoryl)-1-hydroxy-5-oxopentan-2-yl)amino)-3-cyclohexyl-1-oxopropan-2-yl) carbamate]
[1]; [3]
  IC50: > 200 µM
[2]; [4]
  IC50: 166 µM
SARS2 protease; [5]
  IC50: > 200 µM

## CCOP(=O)(OCC)C(O)[C@H](CCC(=O)N(C)c1ccccc1)NC(=O)[C@H](CC1CCCCC1)NC(=O)OCc1cccc(Cl)c1 (stereo partly drawn) [Compound A14, 3-Chlorobenzyl ((2S)-3-cyclohexyl-1-(((2S)-1-(diethoxyphosphoryl)-1-hydroxy-5-(methyl (phenyl)amino)-5-oxopentan-2-yl)amino)-1-oxopropan-2-yl) carbamate]
[1]; [3]
  IC50: 70.1 µM
[2]; [4]
  IC50: 50.9 µM
SARS2 protease; [5]
  IC50: > 200 µM

## CCOP(=O)(OCC)C(O)[C@H](CCC(=O)N(C)CCc1ccccc1)NC(=O)[C@H](CC1CCCCC1)NC(=O)OCc1cccc(Cl)c1 (stereo partly drawn) [Compound A15, 3-Chlorobenzyl ((2S)-3-cyclohexyl-1-(((2S)-1-(diethoxyphosphoryl)-1-hydroxy-5-(methyl(phenethyl)amino)-5-oxopentan-2-yl)amino)-1-oxopropan-2-yl)carbamate]
[1]; [3]
  IC50: 139 µM
[2]; [4]
  IC50: > 200 µM
SARS2 protease; [5]
  IC50: > 200 µM

## CCNC(=O)NCCN(C)C(=O)CC[C@H](NC(=O)[C@H](CC1CCCCC1)NC(=O)OCc1cccc(Cl)c1)C(O)P(=O)(OCC)OCC (stereo partly drawn) [Compound A16, 3-Chlorobenzyl ((12S,15S)-16-cyclohexyl-12-((diethoxyphosphoryl)(hydroxy)methyl)-8-methyl-4,9,14-trioxo-3,5,8,13-tetraazahexadecan-15-yl)carbamate]
[1]; [3]
  IC50: > 200 µM
[2]; [4]
  IC50: 81.9 µM
SARS2 protease; [5]
  IC50: > 200 µM

## CN(Cc1ccccc1)C(=O)CC[C@@H](C=O)NC(=O)[C@H](CC1CCCCC1)NC(=O)OCc1cccc(Cl)c1 [Compound A18, 3-Chlorobenzyl ((S)-1-(((S)-5-(benzyl (methyl)amino)-1,5-dioxopentan-2-yl)amino)-3-cyclohexyl-1-oxopropan-2-yl) carbamate]
[1]; [3]
  IC50: 14.5 µM
[2]; [4]
  IC50: 2.7 µM
SARS2 protease; [5]
  IC50: > 200 µM

## CN(C(=O)CC[C@@H](C=O)NC(=O)[C@H](CC1CCCCC1)NC(=O)OCc1cccc(Cl)c1)c1ccccc1 [Compound A19, 3-Chlorobenzyl ((S)-3-cyclohexyl-1-(((S)-5-(methyl (phenyl)amino)-1,5-dioxopentan-2-yl)amino)-1-oxopropan-2-yl) carbamate]
[1]; [3]
  IC50: 3.3 µM
[2]; [4]
  IC50: 1 µM
SARS2 protease; [5]
  IC50: 40.3 µM

## CCOP(=O)(OCC)C(O)[C@H](CCC(=O)N(C)CCNS(=O)(=O)CC)NC(=O)[C@H](CC1CCCCC1)NC(=O)OCc1cccc(Cl)c1 (stereo partly drawn) [Compound A22]
[1]; [3]
  IC50: > 200 µM
[2]; [4]
  IC50: 143 µM
SARS2 protease; [5]
  IC50: 2.3 µM

## CN(CCc1cccc(Cl)c1)C(=O)CC[C@@H](CO)NC(=O)[C@H](CC1CCCCC1)NC(=O)OCc1cccc(Cl)c1 [Compound A24, 3-Chlorobenzyl ((S)-1-(((S)-5-((3-chlorophenethyl)(methyl)amino)-1-hydroxy-5-oxopentan-2-yl)amino)-3-cyclohexyl-1-oxopropan-2-yl)carbamate]
[1]; [3]
  IC50: 123 µM
[2]; [4]
  IC50: > 200 µM
SARS2 protease; [5]
  IC50: > 200 µM

## CCOCCOCCN(C)C(=O)CC[C@@H](C=O)NC(=O)[C@H](CC1CCCCC1)NC(=O)OCc1cccc(Cl)c1 [Compound A25, 3-Chlorobenzyl ((13S,16S)-17-cyclohexyl-13-formyl-9-methyl-10,15-dioxo-3,6-dioxa-9,14-diazaheptadecan-16-yl)carbamate]
[1]; [3]
  IC50: 39.4 µM
[2]; [4]
  IC50: 17.2 µM
SARS2 protease; [5]
  IC50: > 200 µM

## CCNC(=O)CN(C)C(=O)CC[C@@H](C=O)NC(=O)[C@H](CC1CCCCC1)NC(=O)OCc1cccc(Cl)c1 [Compound A27, 3-Chlorobenzyl ((S)-3-cyclohexyl-1-(((S)-5-((2-(ethylamino)-2-oxoethyl) (methyl)amino)-1,5-dioxopentan-2-yl)amino)-1-oxopropan-2-yl)carbamate]
[1]; [3]
  IC50: 11.3 µM
[2]; [4]
  IC50: 2.7 µM
SARS2 protease; [5]
  IC50: 137 µM

## CCOP(=O)(OCC)C(O)[C@H](CCC(=O)N(CC)CCc1ccccc1)NC(=O)[C@H](CC1CCCCC1)NC(=O)OCc1cccc(Cl)c1 (stereo partly drawn) [Compound A50, 3-Chlorobenzyl ((2S)-3-cyclohexyl-1-(((2S)-1-(diethoxyphosphoryl)-5-(ethyl(phenethyl)amino)-1-hydroxy-5-oxopentan-2-yl)amino)-1-oxopropan-2-yl)carbamate]
[1]; [3]
  IC50: 95.7 µM
[2]; [4]
  IC50: 97.4 µM
SARS2 protease; [5]
  IC50: 9.7 µM

## CCOP(=O)(OCC)C(O)[C@H](CCC(=O)N1CCOC(c2ccccc2)C1)NC(=O)[C@H](CC1CCCCC1)NC(=O)OCc1cccc(Cl)c1 (stereo partly drawn) [Compound A54, 3-Chlorobenzyl ((2S)-3-cyclohexyl-1-(((2S)-1-(diethoxyphosphoryl)-1-hydroxy-5-oxo-5-(2-phenylmorpholino)pentan-2-yl)amino)-1-oxopropan-2-yl)carbamate]
[1]; [3]
  IC50: 161 µM
[2]; [4]
  IC50: 36.3 µM
SARS2 protease; [5]
  IC50: 19 µM

## CN(CCc1ccccc1Cl)C(=O)CC[C@@H](C=O)NC(=O)[C@H](CC1CCCCC1)NC(=O)OCc1cccc(Cl)c1 [Compound A105, 3-Chlorobenzyl ((S)-1-(((S)-5-((2-chlorophenethyl)(methyl)amino)-1,5-dioxopentan-2-yl)amino)-3-cyclohexyl-1-oxopropan-2-yl)carbamate]
[1]; [3]
  IC50: 155 µM
[2]; [4]
  IC50: 28.2 µM
SARS2 protease; [5]
  IC50: > 200 µM

## CCCCCCCC1CCC/C=C/CC(C(=O)N(C)C)C[C@@H](C=O)NC(=O)C(CC(C)C)NC1=O (stereo partly drawn) [Compound B4]
[1]; [6]
  IC50: 149 µM
[2]; [7]
  IC50: 149 µM
SARS2 protease; [5]
  IC50: 156 µM

## CCCC1CCCC/C=C/CC(C(=O)N(C)Cc2ccc(OC)cc2OC)C[C@@H](C(O)P(=O)(OCC)OCC)NC(=O)[C@H](CC(C)C)NC1=O (stereo partly drawn) [Compound B25, Diethyl (((2S,5S,E)-7-((2,4-dimethoxybenzyl)(methyl)carbamoyl)-2-isobutyl-3,16-dioxo-15-propyl-1,4-diazacyclohexadec-9-en-5-yl)(hydroxy)methyl)phosphonate]
[1]
  IC50: 177 µM
[2]
  IC50: 177 µM
SARS2 protease
  IC50: > 200 µM

## CCOP(=O)(OCC)C(O)[C@@H]1CC(C(=O)NC)C/C=C/CCC(Cc2ccccc2)OC(=O)N[C@@H](CC(C)C)C(=O)N1 (stereo partly drawn) [Compound B27, Diethyl (((4S,7S,E)-15-benzyl-4-isobutyl-9-(methylcarbamoyl)-2,5-dioxo-1-oxa-3,6-diazacyclopentadec-11-en-7-yl)(hydroxy)methyl)phosphonate]
[1]; [6]
  IC50: 57.9 µM
[2]; [7]
  IC50: 57.9 µM
SARS2 protease; [5]
  IC50: > 200 µM
